This note sets out measurements from publication PMC13086964, “USP7 deubiquitinase stabilizes FAN1 to support DNA crosslink repair and suppress CAG repeat expansion” (Nature Communications, 2026).

Holding throughout (type): cell-based, human
One assay concerns FAN1 protein level. Put plainly: immunoblot of FAN1 levels after MMC, HeLa. To be noted: MMC 1 μg/ml, 48 h. On the procedure:
(§1) Fig. 4 USP7 facilitates FAN1 localization and function during ICL repair. A QIBC analysis of chromatin-bound GFP-FAN1 foci in U2OS^eGFP-FAN1 cells transfected with either non-targeting (Ctrl), USP7 or FANCD2 siRNA oligos. 24 h later, cells were either mock-treated (–) or treated (+) with MMC (150 ng/ml) for 24 h. Color-coded scatterplots (from grey to green) indicate the number of GFP-FAN1 foci per nucleus from one biological replicate. Mean (solid line) and standard deviation (SD) from the mean (dashed lines) are indicated. Representative images are shown (bottom). Scale bar: 10 μm. This experiment was repeated three times. B QIBC analysis of endogenous FANCD2 foci in U2OS^eGFP-FAN1 cells transfected with either non-targeting (Ctrl) or the indicated siRNA oligos. 24 h later, cells were either mock-treated (−) or treated (+) with MMC (150 ng/ml) for 24 h. Color-coded scatterplots (from grey to blue) indicate the number of FANCD2 foci per nucleus from one biological replicate. Mean (solid line) and standard deviation (SD) from the mean (dashed lines) are indicated. […] 24 h later, cells were either mock-treated (−) or treated (+) with MMC (1 μg/ml) for 48 h and whole-cell lysates were analysed by immunoblotting. […] Relative FAN1, cleaved PARP-1 or cleaved Caspase-3 protein levels were determined by quantification of the respective band intensity (normalized to GAPDH) with the ImageJ software. […]
Background: A western blot detects proteins with antibodies after separation by electrophoresis.

Another assay deals with RPE-1 p53 KO cells. Nature of the assay: clonogenic survival assay, RPE-1 p53 KO. The note with it: 24 h, n = 3. As to the method:
as §1, with “h.” for “h. Color-coded scatterplots (from grey to blue) indicate the number of FANCD2 foci per nucleus from one biological replicate. Mean (solid line) and standard deviation (SD) from the mean (dashed lines) are indicated.”
HeLa and RPE-1 p53 KO cells were transfected with the indicated siRNA. […] For analysis, plates were scanned and analysed with the ImageJ Plugin ColonyArea using the parameter “intensity percent”.

The subject of a further assay is FAN1-USP7. Nature of the assay: in situ proximity ligation assay (PLA), FAN1-USP7 association. To be noted: HeLa cells, MMC 150 ng/ml, 24 h. As to the method: HeLa parental and FAN1 KO cells were grown in the absence or presence of MMC (150 ng/ml) for 24 hours. Cells were pre-extracted with CSK buffer containing 0.5% of Triton™ X-100 (Sigma–Aldrich) for 5 min on ice and fixed in 4% formaldehyde in PBS (w/v) for 20 min at room temperature (RT). Coverslips were then washed with PBS and stored overnight at 4 °C. In situ PLA was performed using Duolink PLA technology (Sigma-Aldrich) according to the manufacturer’s instructions. In brief, coverslips were blocked for 30 min at 37 °C with blocking solution and then incubated with the respective primary antibodies for 2 h at 37 °C. Coverslips were washed three times for 5 min in Wash Buffer A (0.01 M Tris, 0.15 M NaCl, and 0.05% Tween 20). Then, Duolink anti-Mouse PLUS and anti-Rabbit MINUS PLA probes were coupled to the primary antibodies for 1 h at 37 °C. After three wash steps in Wash buffer A for 5 min, the PLA probes were ligated for 30 min at 37 °C. Coverslips were then washed three times for 5 min in Wash buffer A. Amplification using the “Duolink In Situ Detection Reagents FarRed” (Sigma-Aldrich) was performed at 37 °C for 100 min. […] Lastly, the coverslips were mounted using Vectashield Mounting Media (Vector Laboratories) containing DAPI, sealed and imaged on a Leica DMI 6000 fluorescence microscope at x63 magnification. […]

As for `CO[C@@]12[C@H](COC(N)=O)C3=C(C(=O)C(C)=C(N)C3=O)N1C[C@@H]1N[C@@H]12` [MMC, Mitomycin C], the “FAN1 levels in response to MMC” value in the assay on FAN1 protein level is reported as “upregulated”. Moreover, in the assay on FAN1 protein level (USP7 siRNA), the “MMC-induced FAN1 upregulation with USP7 depletion” value is recorded as “abrogated by USP7 depletion”. Also, in the assay with RPE-1 p53 KO cells, the “MMC sensitivity, FAN1/USP7 co-depletion” value is “did not enhance sensitivity beyond individual knock-down of FAN1” and the “MMC sensitivity, FANCD2-depleted” value was “strongest MMC sensitivity”. The “PLA signals, FAN1-USP7 association” value in the assay on FAN1-USP7 was “significantly increased in numbers”.
